# Laboratory results taken from ChEMBL document CHEMBL3132769, “Fragment growing to retain or alter the selectivity of anchored kinase hinge-binding fragments” (Medchemcomm, 2014).
# Key:
# [1] = target: Aurora kinase B (Homo sapiens) (UniProt Q96GD4); test: Inhibition of human full length AurB expressed in baculovirus assessed as substrate phosphorylation using fluorescence-labelled peptides as substrate at 95 uM after 90 mins by microfluidic peptide phosphorylation assay
# [2] = target: Epidermal growth factor receptor (Homo sapiens) (UniProt P00533); test: Inhibition of human EGFR catalytic domain expressed in baculovirus assessed as substrate phosphorylation using fluorescence-labelled peptides as substrate at 95 uM after 90 mins by microfluidic peptide phosphorylation assay
# Sequence of Epidermal growth factor receptor (Homo sapiens) (P00533 whole entry, the tested form may be a part): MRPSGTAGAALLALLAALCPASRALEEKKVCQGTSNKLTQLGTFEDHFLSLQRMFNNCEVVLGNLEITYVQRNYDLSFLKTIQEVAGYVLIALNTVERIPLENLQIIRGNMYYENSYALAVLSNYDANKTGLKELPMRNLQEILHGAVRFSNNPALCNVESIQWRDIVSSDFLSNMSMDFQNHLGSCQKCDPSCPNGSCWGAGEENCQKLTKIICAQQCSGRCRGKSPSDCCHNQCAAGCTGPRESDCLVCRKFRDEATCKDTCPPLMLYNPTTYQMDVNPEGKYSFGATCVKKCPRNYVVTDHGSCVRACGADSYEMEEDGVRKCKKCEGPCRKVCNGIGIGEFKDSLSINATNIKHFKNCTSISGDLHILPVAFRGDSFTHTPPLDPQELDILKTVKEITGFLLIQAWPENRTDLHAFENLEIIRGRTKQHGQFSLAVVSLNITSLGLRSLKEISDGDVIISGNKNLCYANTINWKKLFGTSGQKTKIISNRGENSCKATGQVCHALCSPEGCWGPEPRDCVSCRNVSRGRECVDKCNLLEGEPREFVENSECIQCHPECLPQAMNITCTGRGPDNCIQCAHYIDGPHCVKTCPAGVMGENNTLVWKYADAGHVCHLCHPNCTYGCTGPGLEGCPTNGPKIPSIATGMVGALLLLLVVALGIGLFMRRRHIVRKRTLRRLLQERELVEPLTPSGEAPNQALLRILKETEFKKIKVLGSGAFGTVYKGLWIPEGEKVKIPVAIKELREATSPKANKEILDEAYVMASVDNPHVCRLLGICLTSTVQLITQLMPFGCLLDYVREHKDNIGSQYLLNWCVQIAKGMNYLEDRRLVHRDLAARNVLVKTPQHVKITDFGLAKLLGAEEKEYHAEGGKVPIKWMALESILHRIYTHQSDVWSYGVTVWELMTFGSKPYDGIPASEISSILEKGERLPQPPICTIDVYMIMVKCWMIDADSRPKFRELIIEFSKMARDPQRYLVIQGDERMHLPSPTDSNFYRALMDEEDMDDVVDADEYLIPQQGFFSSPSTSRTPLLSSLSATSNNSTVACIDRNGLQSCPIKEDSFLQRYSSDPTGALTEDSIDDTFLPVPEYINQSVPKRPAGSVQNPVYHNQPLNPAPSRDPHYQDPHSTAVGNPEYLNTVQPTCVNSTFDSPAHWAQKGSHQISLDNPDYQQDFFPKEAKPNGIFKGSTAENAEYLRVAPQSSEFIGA
# [3] = target: T1, Aurora kinase C (Homo sapiens) (UniProt Q9UQB9); test: Inhibition of human full length AurC expressed in baculovirus assessed as substrate phosphorylation using fluorescence-labelled peptides as substrate at 0.2 uM after 90 mins by microfluidic peptide phosphorylation assay
# T1 sequence (whole entry): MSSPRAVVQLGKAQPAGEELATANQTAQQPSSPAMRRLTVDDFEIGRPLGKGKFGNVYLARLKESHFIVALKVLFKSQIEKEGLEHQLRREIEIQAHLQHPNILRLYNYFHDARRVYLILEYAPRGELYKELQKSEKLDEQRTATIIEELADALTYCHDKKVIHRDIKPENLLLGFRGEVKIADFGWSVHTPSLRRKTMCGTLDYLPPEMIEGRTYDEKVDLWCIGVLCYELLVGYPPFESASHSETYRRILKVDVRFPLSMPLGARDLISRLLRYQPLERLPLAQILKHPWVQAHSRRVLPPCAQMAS
# [4] = target: RAF proto-oncogene serine/threonine-protein kinase (Homo sapiens) (UniProt P04049); test: Inhibition of human truncated c-Raf expressed in baculovirus assessed as substrate phosphorylation using fluorescence-labelled peptides as substrate at 2 uM after 90 mins by microfluidic peptide phosphorylation assay
# Sequence of RAF proto-oncogene serine/threonine-protein kinase (Homo sapiens) (P04049 whole entry, the tested form may be a part, canonical isoform): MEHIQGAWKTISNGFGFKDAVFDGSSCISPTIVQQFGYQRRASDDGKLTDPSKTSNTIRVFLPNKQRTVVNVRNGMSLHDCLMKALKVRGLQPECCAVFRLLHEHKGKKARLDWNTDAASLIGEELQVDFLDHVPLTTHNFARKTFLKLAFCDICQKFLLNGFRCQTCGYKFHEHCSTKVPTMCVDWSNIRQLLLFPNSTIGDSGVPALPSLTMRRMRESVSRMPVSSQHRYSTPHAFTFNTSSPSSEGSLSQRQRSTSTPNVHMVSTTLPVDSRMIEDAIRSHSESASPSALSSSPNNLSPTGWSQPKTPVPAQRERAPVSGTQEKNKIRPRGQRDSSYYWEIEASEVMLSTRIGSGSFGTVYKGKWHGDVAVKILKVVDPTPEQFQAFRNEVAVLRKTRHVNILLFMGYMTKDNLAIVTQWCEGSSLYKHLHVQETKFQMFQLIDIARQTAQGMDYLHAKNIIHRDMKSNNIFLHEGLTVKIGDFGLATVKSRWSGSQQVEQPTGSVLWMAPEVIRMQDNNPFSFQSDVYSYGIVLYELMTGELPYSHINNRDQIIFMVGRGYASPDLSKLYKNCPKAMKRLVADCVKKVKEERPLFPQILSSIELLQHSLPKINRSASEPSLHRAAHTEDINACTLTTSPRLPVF
# [5] = target: Casein kinase I isoform delta (Homo sapiens) (UniProt P48730); test: Inhibition of human CK1D catalytic domain expressed in Escherichia coli cell assessed as substrate phosphorylation using fluorescence-labelled peptides as substrate at 1000 uM after 90 mins by microfluidic peptide phosphorylation assay
# Sequence of Casein kinase I isoform delta (Homo sapiens) (P48730 whole entry, looked up, the tested form may be a part, canonical isoform): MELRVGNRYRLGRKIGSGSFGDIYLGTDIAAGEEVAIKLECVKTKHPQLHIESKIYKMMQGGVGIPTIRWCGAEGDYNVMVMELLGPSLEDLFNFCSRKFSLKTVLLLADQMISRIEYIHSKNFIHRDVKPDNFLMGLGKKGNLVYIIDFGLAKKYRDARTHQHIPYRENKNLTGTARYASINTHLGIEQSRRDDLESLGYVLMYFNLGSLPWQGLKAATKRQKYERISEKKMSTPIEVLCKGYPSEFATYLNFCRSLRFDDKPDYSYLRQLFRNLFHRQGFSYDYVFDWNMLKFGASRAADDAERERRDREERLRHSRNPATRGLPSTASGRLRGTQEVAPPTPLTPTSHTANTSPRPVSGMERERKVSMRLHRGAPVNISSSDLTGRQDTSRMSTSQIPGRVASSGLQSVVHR
# [6] = target: T2, Serine/threonine-protein kinase BRSK2 (Homo sapiens) (UniProt Q8IWQ3); test: Inhibition of human truncated BRSK2 expressed in baculovirus assessed as substrate phosphorylation using fluorescence-labelled peptides as substrate at 0.06 uM after 90 mins by microfluidic peptide phosphorylation assay
# T2 sequence (whole entry): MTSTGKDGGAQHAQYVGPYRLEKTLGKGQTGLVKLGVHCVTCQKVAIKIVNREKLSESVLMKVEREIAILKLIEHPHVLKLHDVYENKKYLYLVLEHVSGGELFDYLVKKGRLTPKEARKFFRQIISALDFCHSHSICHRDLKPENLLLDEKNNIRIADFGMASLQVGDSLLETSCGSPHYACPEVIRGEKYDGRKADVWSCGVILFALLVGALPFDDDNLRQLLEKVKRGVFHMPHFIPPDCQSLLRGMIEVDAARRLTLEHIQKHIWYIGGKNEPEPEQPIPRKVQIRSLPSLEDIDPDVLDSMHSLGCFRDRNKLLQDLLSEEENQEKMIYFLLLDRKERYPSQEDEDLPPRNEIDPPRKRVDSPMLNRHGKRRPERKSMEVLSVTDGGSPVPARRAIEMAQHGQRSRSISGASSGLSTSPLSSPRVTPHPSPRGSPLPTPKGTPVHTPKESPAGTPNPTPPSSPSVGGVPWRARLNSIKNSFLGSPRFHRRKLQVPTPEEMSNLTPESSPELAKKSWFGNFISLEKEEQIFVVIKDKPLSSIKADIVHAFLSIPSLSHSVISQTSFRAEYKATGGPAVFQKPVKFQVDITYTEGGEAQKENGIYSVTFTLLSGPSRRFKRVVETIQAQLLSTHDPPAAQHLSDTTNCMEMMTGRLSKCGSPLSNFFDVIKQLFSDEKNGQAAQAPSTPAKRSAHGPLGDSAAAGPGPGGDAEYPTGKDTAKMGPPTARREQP
# [7] = target: Ribosomal protein S6 kinase alpha-4 (Homo sapiens) (UniProt O75676); test: Inhibition of human full length MSK2 expressed in baculovirus assessed as substrate phosphorylation using fluorescence-labelled peptides as substrate at 0.1 uM after 90 mins by microfluidic peptide phosphorylation assay
# Sequence of Ribosomal protein S6 kinase alpha-4 (Homo sapiens) (O75676 whole entry, looked up, canonical isoform): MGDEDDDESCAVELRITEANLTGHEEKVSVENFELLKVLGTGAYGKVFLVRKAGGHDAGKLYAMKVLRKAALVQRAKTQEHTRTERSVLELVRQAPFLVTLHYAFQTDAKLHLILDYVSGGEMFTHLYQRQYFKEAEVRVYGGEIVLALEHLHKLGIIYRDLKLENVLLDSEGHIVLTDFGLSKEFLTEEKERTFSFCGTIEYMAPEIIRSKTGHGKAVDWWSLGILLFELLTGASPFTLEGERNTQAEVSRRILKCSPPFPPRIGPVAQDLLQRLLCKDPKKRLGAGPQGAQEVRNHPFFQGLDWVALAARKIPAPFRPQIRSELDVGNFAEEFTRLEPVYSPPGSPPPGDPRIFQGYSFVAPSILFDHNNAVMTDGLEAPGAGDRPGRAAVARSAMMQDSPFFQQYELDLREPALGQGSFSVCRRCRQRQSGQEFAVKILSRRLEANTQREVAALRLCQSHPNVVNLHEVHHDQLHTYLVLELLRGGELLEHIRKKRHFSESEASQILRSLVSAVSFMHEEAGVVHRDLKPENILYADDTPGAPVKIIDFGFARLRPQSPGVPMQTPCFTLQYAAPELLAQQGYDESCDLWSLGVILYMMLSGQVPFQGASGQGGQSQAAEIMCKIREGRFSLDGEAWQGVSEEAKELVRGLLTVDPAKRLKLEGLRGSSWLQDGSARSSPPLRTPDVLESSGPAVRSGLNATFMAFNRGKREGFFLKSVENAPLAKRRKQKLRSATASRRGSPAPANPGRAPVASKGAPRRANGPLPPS
# [8] = target: Casein kinase I isoform alpha (Homo sapiens) (UniProt P48729); test: Inhibition of human full length CSNK1A1 expressed in baculovirus assessed as substrate phosphorylation using fluorescence-labelled peptides as substrate at 0.1 uM after 90 mins by microfluidic peptide phosphorylation assay
# Sequence of Casein kinase I isoform alpha (Homo sapiens) (P48729 2-337 limits assumed): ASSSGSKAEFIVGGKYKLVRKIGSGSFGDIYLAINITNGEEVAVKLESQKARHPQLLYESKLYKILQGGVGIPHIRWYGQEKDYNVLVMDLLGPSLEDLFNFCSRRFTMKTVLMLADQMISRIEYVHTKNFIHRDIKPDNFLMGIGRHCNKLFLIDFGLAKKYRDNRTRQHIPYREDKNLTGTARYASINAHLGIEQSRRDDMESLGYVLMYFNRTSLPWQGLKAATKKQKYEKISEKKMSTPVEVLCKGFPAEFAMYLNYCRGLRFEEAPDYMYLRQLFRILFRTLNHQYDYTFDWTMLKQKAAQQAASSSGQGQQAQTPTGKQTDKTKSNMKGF
# [9] = target: Aurora kinase B (Homo sapiens) (UniProt Q96GD4); test: Inhibition of human full length AurB expressed in baculovirus assessed as substrate phosphorylation using fluorescence-labelled peptides as substrate at […] after 90 mins by microfluidic peptide phosphorylation assay
# [10] = target: Ribosomal protein S6 kinase alpha-4 (Homo sapiens) (UniProt O75676); test: Inhibition of human full length MSK2 expressed in baculovirus assessed as substrate phosphorylation using fluorescence-labelled peptides as substrate at 420 uM after 90 mins by microfluidic peptide phosphorylation assay
# [11] = target: T3, Aurora kinase A (Homo sapiens) (UniProt O14965); test: Inhibition of human full length AurA expressed in baculovirus assessed as substrate phosphorylation using fluorescence-labelled peptides as substrate at 9 uM after 90 mins by microfluidic peptide phosphorylation assay
# T3 sequence (whole entry): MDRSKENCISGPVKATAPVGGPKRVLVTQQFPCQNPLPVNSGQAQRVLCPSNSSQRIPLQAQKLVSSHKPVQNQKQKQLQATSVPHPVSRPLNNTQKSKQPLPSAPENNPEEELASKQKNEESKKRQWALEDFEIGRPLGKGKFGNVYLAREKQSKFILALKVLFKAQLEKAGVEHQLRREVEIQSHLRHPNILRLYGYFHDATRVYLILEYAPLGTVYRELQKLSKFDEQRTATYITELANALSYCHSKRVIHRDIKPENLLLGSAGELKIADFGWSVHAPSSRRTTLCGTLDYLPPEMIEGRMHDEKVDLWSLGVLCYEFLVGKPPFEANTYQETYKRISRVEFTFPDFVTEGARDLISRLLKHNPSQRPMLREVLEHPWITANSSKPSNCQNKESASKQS
# [12] = target: T4, Serine/threonine-protein kinase Sgk2 (Homo sapiens) (UniProt Q9HBY8); test: Inhibition of human full length SGK2 expressed in baculovirus assessed as substrate phosphorylation using fluorescence-labelled peptides as substrate at 9 uM after 90 mins by microfluidic peptide phosphorylation assay
# T4 sequence (whole entry): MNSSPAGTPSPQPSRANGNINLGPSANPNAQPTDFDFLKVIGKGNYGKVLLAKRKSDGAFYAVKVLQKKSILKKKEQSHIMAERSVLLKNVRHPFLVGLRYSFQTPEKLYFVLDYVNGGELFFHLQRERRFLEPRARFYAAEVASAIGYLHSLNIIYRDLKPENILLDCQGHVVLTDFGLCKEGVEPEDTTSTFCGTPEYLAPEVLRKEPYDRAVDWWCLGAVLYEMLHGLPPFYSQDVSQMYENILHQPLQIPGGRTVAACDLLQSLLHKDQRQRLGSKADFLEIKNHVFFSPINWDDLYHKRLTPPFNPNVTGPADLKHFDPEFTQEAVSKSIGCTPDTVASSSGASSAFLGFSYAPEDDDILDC
# Sequence of Aurora kinase B (Homo sapiens) (Q96GD4 whole entry, the tested form may be a part): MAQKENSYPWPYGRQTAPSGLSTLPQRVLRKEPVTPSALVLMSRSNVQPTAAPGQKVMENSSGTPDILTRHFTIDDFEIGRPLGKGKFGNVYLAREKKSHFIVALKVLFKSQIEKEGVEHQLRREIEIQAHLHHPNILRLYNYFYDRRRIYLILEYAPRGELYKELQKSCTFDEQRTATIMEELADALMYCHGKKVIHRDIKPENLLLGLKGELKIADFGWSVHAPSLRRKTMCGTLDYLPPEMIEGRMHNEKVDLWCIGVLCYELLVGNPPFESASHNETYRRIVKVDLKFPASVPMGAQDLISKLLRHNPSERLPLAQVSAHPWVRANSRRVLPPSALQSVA
smiles,measurement,setting,value
NCCc1ccc(-c2ncnc3[nH]cnc23)cc1,inhibition,[1],97%
same,inhibition,[2],19.5%
Clc1ccc(C2(c3ccc(-c4ncnc5[nH]cnc45)cc3)CCNCC2)cc1,inhibition,[3],73.5%
NC1CCN(c2ncnc3[nH]ccc23)CC1,inhibition,[4],7%
c1cnc2[nH]ccc2c1,inhibition,[5],94.5%
NC1(Cc2ccc(Cl)cc2)CCN(c2ncnc3[nH]ccc23)CC1,inhibition,[6],0%
C[C@H](CN(C)C)Oc1nc(Nc2cc3cccc(Cl)c3cn2)cnc1C#N,inhibition,[7],13.5%
same,inhibition,[8],2.5%
COC(=O)c1cnc(Nc2cnc(C#N)cn2)cc1NCC1CCNCC1,inhibition,[9],4%
c1nc(N2CCOCC2)c2nc[nH]c2n1,inhibition,[10],76%
NCC1CN(c2ncnc3[nH]c4cnccc4c23)CCO1 (configuration not stated),inhibition,[11],23.5%
same,inhibition,[12],48.5%
